Data set [1] is described as follows: Aqueous solubility of raltegravir at given pH. In kind it is physicochemical. From the text:
In one embodiment of the invention, the drug is raltegravir or pharmaceutically acceptable salt thereof. Raltegravir (N-(4-fluorobenzyl)-5-hydroxy-1-methyl-2-(1-methyl-1-{[(5-methyl-1,3,4-oxadiazol-2-yl)carbonyl]amino}ethyl)-6-oxo-1,6-dihydropyrimidine-4-carboxamide) belongs to a novel class of anti-retroviral drugs indicated for the treatment of human immunodeficiency virus (HIV-1) known as integrase strand inhibitors. See, e.g., U.S. Pat. No. 7,169,780. More particularly preferred is the anhydrous crystalline potassium salt of raltegravir, which is characterized by an X-ray powder diffraction pattern obtained using copper Kα radiation which comprises 2Θ values in degrees of 5.9, 20.0 and 20.6. See U.S. Pat. No. 7,754,731, herein incorporated by reference in its entirety. This form of raltegravir is the active pharmaceutical ingredient (API) in […]® tablets.

For data set [2] the following is noted: in vivo; cited from earlier work.

Here are results for one compound from US20160000721A1, “GASTRO-RETENTIVE FORMULATIONS” (priority 2012, published 2016).

In brackets after ≈: the same amount, converted by molar mass.

The solubility is the concentration that dissolves in the medium under given conditions. A higher solubility goes with a readily soluble substance.

Turning to `Cc1nnc(C(=O)NC(C)(C)c2nc(C(=O)NCc3ccc(F)cc3)c(O)c(=O)n2C)o1` [Raltegravir, N-(4-fluorobenzyl)-5-hydroxy-1-methyl-2-(1-methyl-1-{[(5-methyl-1,3,4-oxadiazol-2-yl)carbonyl]amino}ethyl)-6-oxo-1,6-dihydropyrimidine-4-carboxamide], the solubility worked out at 20 µg/mL (≈ 45 µM) in data set [1] (aqueous buffer, pH range of 1-6) and 480 µg/mL (≈ 1080 µM) in data set [1] (pH 6.8, aqueous buffer). Besides, the terminal half-life entry in data set [2] is given as “approximately 9 hours”. In data set [2], the α-phase half-life result is “approximately 1 hour”.
